Assay [1] concerns the target Gamma-aminobutyric acid receptor subunit alpha-4 (Rattus norvegicus, UniProt P28471).
Assay [2] concerns the target Gamma-aminobutyric acid receptor subunit alpha-1 (Rattus norvegicus, UniProt P62813).
For assay [3], the target named is Gamma-aminobutyric acid receptor subunit alpha-2 (Rattus norvegicus, UniProt P23576).
Assay [4] deals with Gamma-aminobutyric acid receptor subunit alpha-3 (Rattus norvegicus, UniProt P20236).
Assay [5] concerns the target Gamma-aminobutyric acid receptor subunit alpha-5 (Rattus norvegicus, UniProt P19969).
The target in assay [6] is Gamma-aminobutyric acid receptor subunit alpha-6 (Rattus norvegicus, UniProt P30191).
Sequence of Gamma-aminobutyric acid receptor subunit alpha-6 (P30191 whole entry): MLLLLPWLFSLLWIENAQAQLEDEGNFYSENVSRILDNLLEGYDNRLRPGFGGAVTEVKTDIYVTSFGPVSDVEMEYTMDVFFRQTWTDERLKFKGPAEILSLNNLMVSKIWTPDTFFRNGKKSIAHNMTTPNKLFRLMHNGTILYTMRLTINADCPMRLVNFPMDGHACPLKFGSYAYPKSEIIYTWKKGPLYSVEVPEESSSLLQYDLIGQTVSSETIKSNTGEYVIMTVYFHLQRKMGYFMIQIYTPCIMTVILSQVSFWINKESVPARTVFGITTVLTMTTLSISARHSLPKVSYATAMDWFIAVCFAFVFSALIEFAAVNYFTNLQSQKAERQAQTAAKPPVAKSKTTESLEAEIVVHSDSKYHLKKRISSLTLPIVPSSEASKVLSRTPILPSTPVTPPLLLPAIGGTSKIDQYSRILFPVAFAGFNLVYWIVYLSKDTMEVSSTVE

Sequence of Gamma-aminobutyric acid receptor subunit alpha-1 (P62813 whole entry): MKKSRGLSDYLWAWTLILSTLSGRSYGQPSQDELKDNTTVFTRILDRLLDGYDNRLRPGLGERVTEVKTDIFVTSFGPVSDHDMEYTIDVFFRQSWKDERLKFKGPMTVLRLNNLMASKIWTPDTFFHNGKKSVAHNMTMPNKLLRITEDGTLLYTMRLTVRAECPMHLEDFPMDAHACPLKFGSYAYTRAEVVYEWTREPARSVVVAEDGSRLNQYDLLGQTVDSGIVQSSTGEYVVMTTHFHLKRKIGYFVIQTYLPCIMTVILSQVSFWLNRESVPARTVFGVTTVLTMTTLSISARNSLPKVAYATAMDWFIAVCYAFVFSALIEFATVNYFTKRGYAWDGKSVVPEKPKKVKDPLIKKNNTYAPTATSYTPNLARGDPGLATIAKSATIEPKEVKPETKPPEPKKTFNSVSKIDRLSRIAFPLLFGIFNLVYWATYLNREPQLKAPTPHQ
Sequence of Gamma-aminobutyric acid receptor subunit alpha-4 (P28471 whole entry): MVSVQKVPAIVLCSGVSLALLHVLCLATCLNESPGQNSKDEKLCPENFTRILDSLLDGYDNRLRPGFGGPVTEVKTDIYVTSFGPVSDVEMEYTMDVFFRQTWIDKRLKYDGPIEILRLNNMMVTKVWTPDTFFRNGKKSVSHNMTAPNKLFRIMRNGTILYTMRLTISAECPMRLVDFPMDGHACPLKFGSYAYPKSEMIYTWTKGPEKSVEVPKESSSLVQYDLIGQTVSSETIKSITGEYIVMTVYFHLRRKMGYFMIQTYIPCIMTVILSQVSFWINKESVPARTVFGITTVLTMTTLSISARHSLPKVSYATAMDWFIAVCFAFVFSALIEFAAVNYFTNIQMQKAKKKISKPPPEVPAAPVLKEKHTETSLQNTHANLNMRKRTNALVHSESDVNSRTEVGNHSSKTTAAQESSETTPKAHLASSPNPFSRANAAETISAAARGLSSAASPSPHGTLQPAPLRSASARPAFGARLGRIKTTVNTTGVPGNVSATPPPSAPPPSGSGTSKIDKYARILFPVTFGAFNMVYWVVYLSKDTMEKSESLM
Sequence of Gamma-aminobutyric acid receptor subunit alpha-2 (P23576 whole entry): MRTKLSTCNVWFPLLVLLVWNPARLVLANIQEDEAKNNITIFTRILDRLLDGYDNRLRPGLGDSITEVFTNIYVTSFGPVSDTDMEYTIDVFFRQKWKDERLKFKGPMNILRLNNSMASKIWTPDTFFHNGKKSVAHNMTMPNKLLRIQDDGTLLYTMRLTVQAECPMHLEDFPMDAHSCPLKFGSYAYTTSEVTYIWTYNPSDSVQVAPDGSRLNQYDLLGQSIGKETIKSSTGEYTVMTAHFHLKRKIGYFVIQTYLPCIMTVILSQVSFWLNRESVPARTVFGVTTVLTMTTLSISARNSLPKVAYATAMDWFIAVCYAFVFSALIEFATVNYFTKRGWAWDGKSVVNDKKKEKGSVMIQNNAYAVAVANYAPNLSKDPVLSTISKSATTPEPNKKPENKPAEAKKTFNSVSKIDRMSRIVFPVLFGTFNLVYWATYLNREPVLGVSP
Sequence of Gamma-aminobutyric acid receptor subunit alpha-5 (P19969 whole entry): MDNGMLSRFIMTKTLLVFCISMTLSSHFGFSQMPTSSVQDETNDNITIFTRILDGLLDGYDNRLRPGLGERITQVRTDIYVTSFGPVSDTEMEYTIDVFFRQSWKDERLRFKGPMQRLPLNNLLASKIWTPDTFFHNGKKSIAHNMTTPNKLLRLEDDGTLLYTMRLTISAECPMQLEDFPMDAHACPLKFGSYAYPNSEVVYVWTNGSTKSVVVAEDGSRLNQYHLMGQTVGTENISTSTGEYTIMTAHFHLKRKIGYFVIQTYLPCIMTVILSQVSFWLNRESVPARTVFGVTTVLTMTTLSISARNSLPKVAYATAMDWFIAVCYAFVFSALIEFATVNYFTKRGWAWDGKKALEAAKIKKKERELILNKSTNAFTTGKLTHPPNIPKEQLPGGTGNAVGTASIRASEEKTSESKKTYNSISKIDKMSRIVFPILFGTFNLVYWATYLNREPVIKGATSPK
Sequence of Gamma-aminobutyric acid receptor subunit alpha-3 (P20236 whole entry I342M/K409L): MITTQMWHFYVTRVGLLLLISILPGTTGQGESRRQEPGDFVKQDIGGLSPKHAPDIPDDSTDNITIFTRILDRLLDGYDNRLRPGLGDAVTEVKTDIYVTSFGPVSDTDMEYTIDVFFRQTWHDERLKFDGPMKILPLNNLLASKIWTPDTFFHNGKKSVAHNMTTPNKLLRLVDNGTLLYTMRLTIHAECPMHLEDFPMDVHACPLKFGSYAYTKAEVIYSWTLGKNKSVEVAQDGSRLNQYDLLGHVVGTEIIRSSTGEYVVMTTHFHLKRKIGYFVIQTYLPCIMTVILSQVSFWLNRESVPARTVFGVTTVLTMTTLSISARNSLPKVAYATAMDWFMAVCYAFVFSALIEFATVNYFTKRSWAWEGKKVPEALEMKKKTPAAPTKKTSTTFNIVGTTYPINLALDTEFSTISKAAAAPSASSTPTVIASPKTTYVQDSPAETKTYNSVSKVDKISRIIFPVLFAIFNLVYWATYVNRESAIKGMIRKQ

For `CC(=O)C1CCC2C3CC[C@H]4C[C@H](O)CC[C@]4(C)C3CC[C@]12C` (stereo partly specified) [Allopregnanolone], the inhibition constant Ki was 1900 nM in assay [1]; 17.5 nM in assay [2]; 41 nM in assay [3]; 20 nM in assay [4]; 21 nM in assay [5].
As to `C[C@]12CC[C@H]3[C@@H](CC[C@@H]4C[C@@](O)(C(F)(F)F)CC[C@@H]43)[C@@H]1CC[C@@H]2C(=O)CO` [GMA-839], the Ki in assay [1] was 2300 nM; in assay [2], 200 nM; in assay [3], 200 nM; in assay [4], 96 nM; in assay [5] it was 210 nM; in assay [6], 2000 nM.

The record behind these values is BindingDB's records for PubMed 10991999 (Cocensys, 2000).
